Test results as given in PMC3348135, “Identification of New Agonists and Antagonists of the Insect Odorant Receptor Co-Receptor Subunit” (PLoS ONE, 2012).

Tests used:
[1] = target: Cqui\Orco + Cqui\Or10 (Culex quinquefasciatus, UniProt D5LMR7+Q309I4); experiment: Activation of Cqui\Orco + Cqui\Or10 in Xenopus oocytes, two-electrode voltage clamp; format: cell-based; conditions: 100 µM compound, mean ± SEM, n=3-8
Protocol: (§1) Oocytes were surgically removed from mature Xenopus laevis frogs. Follicle cells were removed by treatment with Collagenase B (Boehringer Mannhem) for 2 hours at room temperature. Capped cRNA encoding each DmOR subunit was generated using mMessage mMachine kits (Ambion). For heteromeric ORs, 25 ng of cRNA encoding each OR subunit was injected into Stage V-VI Xenopus oocytes. For expression of Orco alone, 50 ng of cRNA was injected. Oocytes were incubated at 18°C in Barth’s saline (in mM: 88 NaCl, 1 KCl, 2.4 NaHCO3, 0.3 CaNO3, 0.41 CaCl2, 0.82 MgSO4, 15 HEPES, pH 7.6, and 150 µg/ml ceftazidime) for 2–5 days prior to electrophysiological recording.
(§2) Odorant and Orco ligand induced currents were recorded under two-electrode voltage clamp in Xenopus laevis oocytes expressing ORs, using an automated parallel electrophysiology system (OpusExpress 6000A; Molecular Devices). Oocytes were perfused with ND96 (in mM: 96 NaCl, 2 KCl, 1 CaCl2, 1 MgCl2, 5 HEPES, pH 7.5). Odorant stock solutions (0.5 or 1 M) and Orco ligand stock solutions (100 mM) were prepared in DMSO and diluted in ND96. Unless otherwise noted, applications were for 60 sec at a flow rate of 1.0 ml/min, with extensive washing in ND96 (9 or 20 min at 4.6 ml/min) between applications. Micropipettes were filled with 3 M KCl and had resistances of 0.2−2.0 MΩ. The holding potential was −70 mV. Current responses, filtered (4-pole, Bessel, low pass) at 20 Hz (−3 db) and sampled at 100 Hz, were captured and stored using OpusXpress 1.1 software (Molecular Devices).
(§3) Initial analysis of electrophysiological data was done using Clampfit 9.1 software (Molecular Devices). Curve fitting and statistical analyses were done using Prism 5 (Graphpad). Concentration-response data were fit to the equation: I = Imax/(1+(EC50/X)^n) where I represents the current response at a given concentration of odorant, X; Imax is the maximal response; EC50 is the concentration of agonist yielding a half maximal response; n is the apparent Hill coefficient. Concentration-inhibition data were fit to the equation: I = Imax/(1+(X/IC50)^n) where I represents the current response at a given concentration of inhibitor, X; Imax is the maximal response in the absence of inhibitor; IC50 is the concentration of inhibitor present that still allows a half maximal response from odorant; n is the apparent Hill coefficient. Statistical significance was assessed using a two-tailed unpaired t test, an F test, or a one-way analysis of variance followed by the Bonferroni’s post-test, as appropriate.

[2] = target: T1, Dmel\Orco + Dmel\Or35a (Drosophila melanogaster, UniProt Q9VNB5); experiment: Agonist activation of Dmel\Orco + Dmel\Or35a in Xenopus oocytes, two-electrode voltage clamp; format: cell-based; conditions: for Response amplitude as percentage of response to 100 µM OLC3, Dmel\Orco + Dmel\Or35a: 100 µM compound, mean ± SEM, n=3-8
T1 construct: expressed in transfected cells; host or cells: Xenopus laevis oocytes (cRNA injection, pGEMHE)
T1 sequence (Q9VNB5 1-486): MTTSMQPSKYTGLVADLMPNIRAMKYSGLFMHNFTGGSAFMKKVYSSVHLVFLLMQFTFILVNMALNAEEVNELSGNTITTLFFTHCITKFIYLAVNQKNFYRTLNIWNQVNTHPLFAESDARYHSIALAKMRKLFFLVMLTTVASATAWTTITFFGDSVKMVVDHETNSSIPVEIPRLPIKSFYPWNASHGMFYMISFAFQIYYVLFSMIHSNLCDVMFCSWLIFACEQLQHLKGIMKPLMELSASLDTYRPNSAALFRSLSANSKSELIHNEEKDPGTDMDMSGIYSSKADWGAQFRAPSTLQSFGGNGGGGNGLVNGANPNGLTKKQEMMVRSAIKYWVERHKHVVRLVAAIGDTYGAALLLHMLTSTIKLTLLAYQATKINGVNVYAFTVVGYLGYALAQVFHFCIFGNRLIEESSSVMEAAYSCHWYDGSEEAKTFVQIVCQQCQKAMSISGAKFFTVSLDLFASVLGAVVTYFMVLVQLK
T1 sequence (Q9V3Q2 1-409 partner): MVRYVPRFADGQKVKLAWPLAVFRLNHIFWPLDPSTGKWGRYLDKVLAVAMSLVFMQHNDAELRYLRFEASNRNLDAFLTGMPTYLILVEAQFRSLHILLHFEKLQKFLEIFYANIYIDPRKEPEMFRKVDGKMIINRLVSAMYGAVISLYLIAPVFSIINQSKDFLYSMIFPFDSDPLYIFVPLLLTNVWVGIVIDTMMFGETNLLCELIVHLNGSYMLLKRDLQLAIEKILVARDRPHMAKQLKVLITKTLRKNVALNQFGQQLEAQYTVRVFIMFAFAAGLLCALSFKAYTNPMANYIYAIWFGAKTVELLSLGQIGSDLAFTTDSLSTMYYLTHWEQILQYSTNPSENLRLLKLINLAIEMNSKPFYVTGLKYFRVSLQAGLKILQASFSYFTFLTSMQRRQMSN
Protocol: as §1, §2, §3

[3] = tested on: Onub\Orco + Onub\Or1; experiment: Agonist activation of Onub\Orco + Onub\Or1 in Xenopus oocytes, two-electrode voltage clamp; format: cell-based, Ostrinia nubilalis; conditions: 100 µM compound; mean ± SEM, n=3-8
[4] = target: T2, Dmel\Orco (Drosophila melanogaster, UniProt Q9VNB5); experiment: Agonist activation of homomeric Dmel\Orco in Xenopus oocytes, two-electrode voltage clamp; format: cell-based; conditions: for Response amplitude as percentage of response to 100 µM OLC3, Dmel\Orco: 100 µM compound, mean ± SEM, n=3-8
T2 construct: expressed in transfected cells; host or cells: Xenopus laevis oocytes (cRNA injection, pGEMHE)
T2 sequence (Q9VNB5 1-486): T1 sequence (Q9VNB5 1-486)
Protocol: as §1, §2, §3

[5] = tested on: Cqui\Orco; experiment: Agonist activation of homomeric Cqui\Orco in Xenopus oocytes, two-electrode voltage clamp; format: cell-based, Culex quinquefasciatus; conditions: 100 µM compound; mean ± SEM, n=3-8
[6] = target: T2, Dmel\Orco; experiment: Inhibition of OLC12 activation of Dmel\Orco in Xenopus oocytes; format: cell-based
Protocol: as §1, §2
(§4) In inhibition assays, oocytes were exposed to 60 sec applications of OLC12 with 9 min washes between applications (Fig. 3 and 4) or 60 sec applications of odorant with 20 min washes between applications (Fig. 5). Oocytes were then exposed to a 90 sec application of antagonist candidate, immediately followed by a 60 sec co-application of antagonist candidate and OLC12 or odorant. Oocytes were then exposed to a final 60 sec application of OLC12 or odorant. The current response in the presence of antagonist candidate was compared to the preceding response(s) to OLC12 (or odorant) alone.
as §3

[7] = target: T1, Dmel\Orco + Dmel\Or35a; experiment: Inhibition of OLC12 activation of Dmel\Orco + Dmel\Or35a in Xenopus oocytes; format: cell-based; conditions: activated by 10 µM OLC12 (EC25); read-out: IC50, Dmel\Orco + Dmel\Or35a (activated by 10 µM OLC12)
Protocol: as §1, §2, §4, §3

Chain of Cqui\Orco + Cqui\Or10 (D5LMR7 entry or part of it): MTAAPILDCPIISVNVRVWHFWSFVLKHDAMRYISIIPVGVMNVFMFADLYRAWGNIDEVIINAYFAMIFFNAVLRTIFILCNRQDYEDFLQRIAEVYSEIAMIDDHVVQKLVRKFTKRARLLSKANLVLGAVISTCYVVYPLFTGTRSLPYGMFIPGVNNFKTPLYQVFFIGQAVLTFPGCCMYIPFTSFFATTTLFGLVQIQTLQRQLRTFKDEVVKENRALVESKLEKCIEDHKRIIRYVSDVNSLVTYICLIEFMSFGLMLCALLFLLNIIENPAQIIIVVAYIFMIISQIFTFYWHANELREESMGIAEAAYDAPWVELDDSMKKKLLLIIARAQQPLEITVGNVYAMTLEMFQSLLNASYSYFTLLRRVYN
Chain of Cqui\Orco + Cqui\Or10 (Q309I4 entry or part of it): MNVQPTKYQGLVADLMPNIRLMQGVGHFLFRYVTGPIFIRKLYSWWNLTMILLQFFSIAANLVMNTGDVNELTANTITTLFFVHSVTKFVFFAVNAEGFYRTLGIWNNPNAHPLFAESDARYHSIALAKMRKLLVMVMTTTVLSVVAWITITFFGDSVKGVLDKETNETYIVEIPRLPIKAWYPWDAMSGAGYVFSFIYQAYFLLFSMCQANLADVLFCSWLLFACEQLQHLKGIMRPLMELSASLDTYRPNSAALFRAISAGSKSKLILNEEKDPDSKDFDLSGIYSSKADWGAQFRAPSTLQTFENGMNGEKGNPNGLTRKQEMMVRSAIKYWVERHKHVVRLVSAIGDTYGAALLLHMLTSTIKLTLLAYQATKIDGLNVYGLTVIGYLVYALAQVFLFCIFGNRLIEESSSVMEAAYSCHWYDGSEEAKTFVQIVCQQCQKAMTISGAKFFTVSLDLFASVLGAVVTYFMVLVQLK

Structure (SMILES) | Response amplitude as percentage of response to 100 µM OLC3, Cqui\Orco + Cqui\Or10 [1] [%] | Response amplitude as percentage of response to 100 µM OLC3, Dmel\Orco + Dmel\Or35a [2] [%] | Response amplitude as percentage of response to 100 µM OLC3, Onub\Orco + Onub\Or1 [3] [%] | Response amplitude as percentage of response to 100 µM OLC3, Dmel\Orco [4] [%] | Response amplitude as percentage of response to 100 µM OLC3, Cqui\Orco [5] [%] | Inhibition of activation of Dmel\Orco by 30 µM OLC12 on co-application ([6]; 100 µM compound co-applied with 30 µM OLC12) | IC50 [7] [µM] | Emax at 100 µM ([1]; read-out: Response amplitude as percentage of response to 100 µM OLC3, Cqui\Orco + Cqui\Or10) [%] | Emax at 100 µM ([2]; read-out: Response amplitude as percentage of response to 100 µM OLC3, Dmel\Orco + Dmel\Or35a) [%] | IC50 ([6]; activated by 30 µM OLC12 (EC39)) [µM] | Emax at 100 µM ([4]; read-out: Response amplitude as percentage of response to 100 µM OLC3, Dmel\Orco) [%]
CCc1ccc(NC(=O)CSc2nnc(-c3cnccn3)n2CC)cc1 [OLC4] | 0 | 4 ± 1 | 4 ± 2 | 0 | 0 |  |  |  |  |  | 
CCn1c(SCC(=O)Nc2ccc(C)cc2)nnc1-c1cccnc1 [OLC5] | 16 ± 2 | 4 ± 1 | 4 ± 2 | 0 | 0 |  |  |  |  |  | 
CCn1c(SCC(=O)Nc2cccc(C)c2)nnc1-c1cccnc1 [OLC6] | 0 | 0 | 0 | 0 | 4 ± 2 |  |  |  |  |  | 
CCn1c(SCC(=O)Nc2ccc(OC)cc2)nnc1-c1cccnc1 [OLC7] | 4 ± 1 | 4 ± 1 | 0 | 0 | 4 ± 2 |  |  |  |  |  | 
CCc1ccccc1NC(=O)CSc1nnc(-c2cccnc2)n1CC [OLC8] | 0 | 0 | 0 | 0 | 5 ± 3 | fails to block |  |  |  |  | 
CCn1c(SCC(=O)Nc2ccc(Br)cc2)nnc1-c1cccnc1 [OLC10] | 27 ± 16 | 25 ± 7 |  | 0 | 0 |  |  |  |  |  | 
CCn1c(SCC(=O)Nc2ccc(Cl)cc2)nnc1-c1cccnc1 [OLC11] | 13 ± 3 | 13 ± 2 |  | 0 | 0 |  |  |  |  |  | 
CCn1c(SCC(=O)Nc2ccc(C)c(C)c2)nnc1-c1ccncc1 [OLC13] | 0 | 0 |  | 0 | 0 |  |  |  |  |  | 
CCn1c(SCC(=O)Nc2ccc(N(C)C)cc2)nnc1-c1ccncc1 [OLC14] |  |  |  |  | 0 |  | 81 ± 23 | 12 ± 2 | 2 ± 1 | 25 ± 4 | 0
Sc1nnc(-c2cccnc2)[nH]1 [OLC16] | 0 | 0 |  | 0 | 3 ± 2 |  |  |  |  |  | 
C=CCn1c(S)nnc1-c1cccnc1 [OLC17] | 0 | 0 |  | 0 | 3 ± 2 |  |  |  |  |  | 
Cn1cnnc1-c1ccncc1 [OLC18] | 0 | 0 |  | 0 | 0 |  |  |  |  |  | 
CCc1ccc(NC(C)=O)cc1 [OLC19] | 0 | 0 |  | 0 | 3 ± 2 |  |  |  |  |  | 
CC(C)c1ccc(NC(=O)CSc2nnnn2C)cc1 [OLC21] | 0 | 0 |  | 0 | 0 |  |  |  |  |  | 
Cc1nnc(-c2ccccn2)[nH]1 [OLC23] | 8 ± 3 | 0 |  | 0 | 0 |  |  |  |  |  | 
